According to the Kinase Knowledgebase extract (Sharma et al. 2016):

Molecular target: EGFR (human) (UniProt P00533)
Sequence (P00533 whole entry, looked up): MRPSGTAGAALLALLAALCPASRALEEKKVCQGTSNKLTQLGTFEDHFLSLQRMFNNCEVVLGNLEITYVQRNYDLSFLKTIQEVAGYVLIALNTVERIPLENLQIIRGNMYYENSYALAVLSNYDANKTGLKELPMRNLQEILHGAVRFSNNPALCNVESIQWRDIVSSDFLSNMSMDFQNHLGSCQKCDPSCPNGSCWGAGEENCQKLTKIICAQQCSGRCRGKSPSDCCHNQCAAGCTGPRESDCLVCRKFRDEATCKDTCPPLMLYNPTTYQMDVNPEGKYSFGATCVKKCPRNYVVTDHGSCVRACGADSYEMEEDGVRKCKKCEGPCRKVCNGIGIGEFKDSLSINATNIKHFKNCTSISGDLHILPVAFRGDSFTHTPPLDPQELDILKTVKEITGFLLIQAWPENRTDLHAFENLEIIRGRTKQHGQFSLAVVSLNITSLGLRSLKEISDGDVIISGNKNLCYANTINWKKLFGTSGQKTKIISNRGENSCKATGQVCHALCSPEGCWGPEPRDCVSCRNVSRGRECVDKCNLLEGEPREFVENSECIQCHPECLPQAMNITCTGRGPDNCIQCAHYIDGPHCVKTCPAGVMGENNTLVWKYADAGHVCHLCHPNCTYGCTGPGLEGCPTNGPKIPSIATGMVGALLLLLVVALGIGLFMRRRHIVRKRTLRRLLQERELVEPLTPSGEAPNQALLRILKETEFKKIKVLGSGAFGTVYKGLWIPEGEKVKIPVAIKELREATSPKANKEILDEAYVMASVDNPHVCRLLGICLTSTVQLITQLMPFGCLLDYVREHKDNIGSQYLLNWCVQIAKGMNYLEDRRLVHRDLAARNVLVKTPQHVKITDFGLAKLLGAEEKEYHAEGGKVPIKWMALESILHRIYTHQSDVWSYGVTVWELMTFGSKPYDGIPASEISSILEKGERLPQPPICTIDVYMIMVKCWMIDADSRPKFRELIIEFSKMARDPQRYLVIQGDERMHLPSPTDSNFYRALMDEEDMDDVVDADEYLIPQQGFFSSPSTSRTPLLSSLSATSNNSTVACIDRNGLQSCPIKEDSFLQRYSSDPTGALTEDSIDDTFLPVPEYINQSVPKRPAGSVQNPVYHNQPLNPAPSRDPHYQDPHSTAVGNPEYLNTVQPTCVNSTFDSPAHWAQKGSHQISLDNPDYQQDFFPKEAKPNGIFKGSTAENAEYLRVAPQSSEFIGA

| SMILES | IC50 |
| --- | --- |
| O=C(CCCCCCOc1ccc2ncnc(Nc3ccc(F)c(Cl)c3)c2c1)NO | ≤ 0.1 µM |
| C#Cc1cccc(Nc2ncnc3cc(OCCCCCCC(=O)NO)c(OCCOC)cc23)c1 | ≤ 0.1 µM |
| COc1cc2ncnc(Nc3ccc(F)c(Cl)c3)c2cc1NC(=O)CCCCCCC(=O)NO | ≤ 0.1 µM |
| C#Cc1cccc(Nc2ncnc3ccc(OCCCCC(=O)NO)cc23)c1 | ≤ 0.1 µM |
| COc1cc2ncnc(Nc3ccc(F)c(Cl)c3)c2cc1SCCCCC(=O)NO | ≤ 0.1 µM |
| C#Cc1cccc(Nc2ncnc3ccc(OCCCCCCC(=O)NO)cc23)c1 | 0.1 to 1 µM |
| C#Cc1cccc(Nc2ncnc3cc(OC)c(NC(=O)CCCCCCC(=O)NO)cc23)c1 | ≤ 0.1 µM |
| C#Cc1cccc(Nc2ncnc3cc(OC)c(OCCCCCC(=O)NO)cc23)c1 | ≤ 0.1 µM |
| O=C(CCOc1ccc2ncnc(Nc3ccc(F)c(Cl)c3)c2c1)NO | ≤ 0.1 µM |
| COc1cc2ncnc(NCc3ccc(F)c(F)c3)c2cc1OCCCCCCC(=O)NO | 0.1 to 1 µM |
| COCCOc1cc2ncnc(Nc3ccc(F)c(Cl)c3)c2cc1NC(=O)CCCCC(=O)NO | ≤ 0.1 µM |
| COc1cc2ncnc(Nc3ccc(F)c(Cl)c3)c2cc1OCCCCC(=O)NO | ≤ 0.1 µM |
| COc1cc2ncnc(Nc3ccc(F)c(Cl)c3)c2cc1OCCOc1ccc(CC(=O)NO)cc1 | ≤ 0.1 µM |
| COc1cc2ncnc(Nc3ccc(F)c(Cl)c3)c2cc1SCCCCCCC(=O)NO | ≤ 0.1 µM |
| O=C(CCCCCCOc1ccc2ncnc(Nc3ccc(OCc4cccc(F)c4)c(Cl)c3)c2c1)NO | ≤ 0.1 µM |
| C#Cc1cccc(Nc2ncnc3cc(OC)c(NC(=O)CCCC(=O)NO)cc23)c1 | ≤ 0.1 µM |
| COc1ccc([C@@H](C)Nc2ncnc3cc(OC)c(OCCCCCCC(=O)NO)cc23)cc1 | ≥ 10 µM |
| COc1cc2ncnc(Nc3ccc(F)c(Cl)c3)c2cc1OCCCCCC(=O)NO | ≤ 0.1 µM |
| O=C(CCCCCOc1ccc2ncnc(Nc3ccc(F)c(Cl)c3)c2c1)NO | ≤ 0.1 µM |
| COc1cc2ncnc(Nc3ccc(F)c(Cl)c3)c2cc1OCCCCCCC(=O)NO | ≤ 0.1 µM |
| COCCOc1cc2ncnc(Nc3ccc(F)c(Cl)c3)c2cc1NC(=O)CCCC(=O)NO | ≤ 0.1 µM |

| SMILES | IC50 |
| --- | --- |
| C[C@@H](Nc1ncnc2ccc(OCCCCCCC(=O)NO)cc12)c1ccccc1 | 0.1 to 1 µM |
| O=C(CCCCCNCc1ccc(-c2ccc3ncnc(Nc4ccc(OCc5cccc(F)c5)c(Cl)c4)c3c2)o1)NO | ≤ 0.1 µM |
| COc1cc2ncnc(NCc3ccc(F)c(Cl)c3)c2cc1OCCCCCCC(=O)NO | ≤ 0.1 µM |
| C#Cc1cccc(Nc2ncnc3cc(OC)c(OCC(=O)NO)cc23)c1 | ≤ 0.1 µM |
| COc1cc2ncnc(Nc3ccc(F)c(Cl)c3)c2cc1OCCC(=O)NO | ≤ 0.1 µM |
| COc1cc2ncnc(Nc3ccc(F)c(Cl)c3)c2cc1NC(=O)Nc1ccc(C(=O)NO)cc1 | ≤ 0.1 µM |
| COc1cc2ncnc(Nc3ccc(F)c(Cl)c3)c2cc1OCCCCCCC(=O)N(C)O | ≤ 0.1 µM |
| COc1cc2ncnc(Nc3ccc(F)c(Cl)c3)c2cc1OCCCC(=O)NO | ≤ 0.1 µM |
| COc1cc2ncnc(Nc3ccc(F)c(Cl)c3)c2cc1OCCOc1ccc(C=CC(=O)NO)cc1 | ≤ 0.1 µM |
| COc1cc2ncnc(NCc3cccc(Br)c3)c2cc1OCCCCCCC(=O)NO | 0.1 to 1 µM |
| COc1cc2ncnc(N[C@H](C)c3ccc(F)cc3)c2cc1OCCCCCCC(=O)NO | 0.1 to 1 µM |
| COCCOc1cc2ncnc(Nc3ccc(F)c(Cl)c3)c2cc1OCCCCCCC(=O)NO | ≤ 0.1 µM |
| Nc1cc(Br)ccc1NC(=O)COc1ccc2ncnc(Nc3ccc(F)c(Cl)c3)c2c1 | 0.1 to 1 µM |
| C#Cc1cccc(Nc2ncnc3cc(OCCOC)c(OCCCCCCC(=O)NO)cc23)c1 | ≤ 0.1 µM |
| COCCOc1cc2ncnc(Nc3ccc(OCc4cccc(F)c4)c(Cl)c3)c2cc1OCCCCCCC(=O)NO | ≤ 0.1 µM |
| O=C(COc1ccc2ncnc(Nc3ccc(F)c(Cl)c3)c2c1)NO | ≤ 0.1 µM |
| COCCOc1cc2c(Nc3ccc(F)c(Cl)c3)ncnc2cc1OCCCCCCC(=O)NO | ≤ 0.1 µM |
| COc1cc2ncnc(Nc3ccc(F)c(Cl)c3)c2cc1OCCCCCCN(O)C(N)=O | ≤ 0.1 µM |
| C#Cc1cccc(Nc2ncnc3ccc(OCCCCCC(=O)NO)cc23)c1 | 0.1 to 1 µM |
| COc1cc2ncnc(Nc3ccc(F)c(Cl)c3)c2cc1OCCOc1ccc(C(=O)NO)cc1 | ≤ 0.1 µM |
| COc1cc2ncnc(Nc3ccc(F)c(Cl)c3)c2cc1NC(=O)CCCC(=O)NO | ≤ 0.1 µM |

| SMILES | IC50 |
| --- | --- |
| COc1cc2ncnc(Nc3ccc(F)c(Cl)c3)c2cc1OCC(=O)NO | ≤ 0.1 µM |
| COc1cc2ncnc(Nc3ccc(F)c(Cl)c3)c2cc1CCCCCC(=O)NO | ≤ 0.1 µM |
| C#Cc1cccc(Nc2ncnc3cc(O)c(OCCCCCCC(=O)NO)cc23)c1 | ≤ 0.1 µM |
| C#Cc1cccc(Nc2ncnc3cc(OC)c(OCCC(=O)NO)cc23)c1 | ≤ 0.1 µM |
| C#Cc1cccc(Nc2ncnc3ccc(OCC(=O)NO)cc23)c1 | ≤ 0.1 µM |
| C#Cc1cccc(Nc2ncnc3ccc(OCCCC(=O)NO)cc23)c1 | 0.1 to 1 µM |
| C[C@@H](Nc1ncnc2ccc(OCCCCCC(=O)NO)cc12)c1ccccc1 | 0.1 to 1 µM |
| C#Cc1cccc(Nc2ncnc3cc(OC)c(OCCCC(=O)NO)cc23)c1 | ≤ 0.1 µM |
| COc1cc2ncnc(NCCc3ccccc3)c2cc1OCCCCCCC(=O)NO | 0.1 to 1 µM |
| O=C(CCCCOc1ccc2ncnc(Nc3ccc(F)c(Cl)c3)c2c1)NO | ≤ 0.1 µM |
| C#Cc1cccc(Nc2ncnc3cc(OCCCCCCC(=O)NO)c(OC)cc23)c1 | ≤ 0.1 µM |
| COc1cc2ncnc(Nc3ccc(OCc4cccc(F)c4)c(Cl)c3)c2cc1OCCCCCCC(=O)NO | ≤ 0.1 µM |
| C#Cc1cc(Nc2ncnc3cc(OCCOC)c(OCCCCCCC(=O)NO)cc23)ccc1F | ≤ 0.1 µM |
| COc1cc2ncnc(N[C@H](C)c3ccccc3)c2cc1OCCCCCC(=O)NO | ≤ 0.1 µM |
| COc1cc2ncnc(N[C@H](C)c3ccc(Cl)cc3)c2cc1OCCCCCCC(=O)NO | 0.1 to 1 µM |
| C#Cc1cc(Nc2ncnc3cc(OC)c(OCCCCCCC(=O)NO)cc23)ccc1F | ≤ 0.1 µM |
| COc1cc2ncnc(NCc3ccccc3)c2cc1OCCCCCCC(=O)NO | ≤ 0.1 µM |
| COCCOc1cc2ncnc(Nc3ccc(F)c(Cl)c3)c2cc1NC(=O)CCCCCCC(=O)NO | ≤ 0.1 µM |
| C#Cc1cccc(Nc2ncnc3cc(OC)c(NC(=O)CCCCC(=O)NO)cc23)c1 | ≤ 0.1 µM |
| O=C(CCCCCCCNCc1ccc(-c2ccc3ncnc(Nc4ccc(OCc5cccc(F)c5)c(Cl)c4)c3c2)o1)NO | ≤ 0.1 µM |
| C#Cc1cc(Nc2ncnc3cc(OC)c(OCCCCCCC(=O)NO)cc23)ccc1O | ≤ 0.1 µM |
